Laboratory results taken from patent US8063053B2, “1-(arylsulfonyl)-4-(piperazin-1-yl)-1H-benzimidazoles as 5-hydroxytryptamine-6 ligands” (Wyeth LLC, priority 2008, dated 2011).

These compounds were tested against T1, serotonin 5-HT6 receptor subtype (Homo sapiens, UniProt P50406) (assay: 5-HT6 binding affinity ([3H]-LSD SPA binding)). Details: read-out: 5-HT6 binding Ki.
T1 construct: host or cells: CHO-Dukx-A2 cells, clone 50-7
T1 sequence (P50406 whole entry): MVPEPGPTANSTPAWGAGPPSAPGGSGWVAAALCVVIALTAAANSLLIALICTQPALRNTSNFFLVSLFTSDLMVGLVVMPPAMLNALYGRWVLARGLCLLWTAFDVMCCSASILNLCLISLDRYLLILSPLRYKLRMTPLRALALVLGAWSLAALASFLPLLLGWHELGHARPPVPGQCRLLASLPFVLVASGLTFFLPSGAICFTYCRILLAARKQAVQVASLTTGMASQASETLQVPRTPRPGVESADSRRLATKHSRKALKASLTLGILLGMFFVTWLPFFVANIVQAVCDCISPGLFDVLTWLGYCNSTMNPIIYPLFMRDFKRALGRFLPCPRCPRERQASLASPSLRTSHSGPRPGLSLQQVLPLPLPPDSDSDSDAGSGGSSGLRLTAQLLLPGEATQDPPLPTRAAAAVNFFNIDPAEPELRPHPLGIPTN
Compound `CCOc1ccccc1S(=O)(=O)n1c(C)nc2c(N3CCNCC3)cccc21` [Example 89, 1-[(2-ethoxyphenyl)sulfonyl]-2-methyl-4-piperazin-1-yl-1H-benzimidazole] has a Ki of 0.761 nM.
`COc1cc(C)c(Cl)cc1S(=O)(=O)n1cnc2c(N3CCNCC3)cccc21` [Example 90, 1-[(5-chloro-2-methoxy-4-methylphenyl)sulfonyl]-4-piperazin-1-yl-1H-benzimidazole] gave a Ki of 12.9 nM.
Work on `Cc1nc2c(N3CCNC(C)C3)cccc2n1S(=O)(=O)c1ccccc1` (stereo not shown) [Example 91, 2-methyl-4-(3-methylpiperazin-1-yl)-1-(phenylsulfonyl)-1H-benzimidazole] yielded a Ki of 2.44 nM.
Compound `Cc1nc2c(N3CCNC(C)C3)cccc2n1S(=O)(=O)c1cccc2ccccc12` (stereo not shown) [Example 92, 2-methyl-4-(3-methylpiperazin-1-yl)-1-(naphthalen-1-ylsulfonyl)-1H-benzimidazole] has a Ki of 0.623 nM.
With `Cc1nc2c(N3CCNC(C)C3)cccc2n1S(=O)(=O)c1ccccc1Cl` (stereo not shown) [Example 93, 1-[(2-chlorophenyl)sulfonyl]-2-methyl-4-(3-methylpiperazin-1-yl)-1H-benzimidazole] the Ki was 0.488 nM.
For `Cc1nc2c(N3CCNC(C)C3)cccc2n1S(=O)(=O)c1cccc(F)c1` (stereo not shown) [Example 94, 1-[(3-fluorophenyl)sulfonyl]-2-methyl-4-(3-methylpiperazin-1-yl)-1H-benzimidazole], the Ki was 1.07 nM.
For `Cc1c(Cl)cccc1S(=O)(=O)n1c(C)nc2c(N3CCNC(C)C3)cccc21` (stereo not shown) [Example 95, 1-[(3-chloro-2-methylphenyl)sulfonyl]-2-methyl-4-(3-methylpiperazin-1-yl)-1H-benzimidazole], the Ki was 0.394 nM.
Compound `Cc1nc2c(N3C[C@@H](C)N[C@@H](C)C3)cccc2n1S(=O)(=O)c1ccccc1` [Example 96, 4-[(3R,5S)-3,5-dimethylpiperazin-1-yl]-2-methyl-1-(phenylsulfonyl)-1H-benzimidazole] has a Ki of 27.2 nM.
In the case of `Cc1nc2c(N3C[C@@H](C)N[C@@H](C)C3)cccc2n1S(=O)(=O)c1cccc2ccccc12` [Example 97, 4-[(3R,5S)-3,5-dimethylpiperazin-1-yl]-2-methyl-1-(naphthalen-1-ylsulfonyl)-1H-benzimidazole], the Ki is reported as 3.8 nM.
Compound `Cc1nc2c(N3C[C@@H](C)N[C@@H](C)C3)cccc2n1S(=O)(=O)c1ccccc1Cl` [Example 98, 1-[(2-chlorophenyl)sulfonyl]-4-[(3R,5S)-3,5-dimethylpiperazin-1-yl]-2-methyl-1H-benzimidazole] has a Ki of 3.5 nM.
With `Cc1nc2c(N3C[C@@H](C)N[C@@H](C)C3)cccc2n1S(=O)(=O)c1cccc(F)c1` [Example 99, 4-[(3R,5S)-3,5-dimethylpiperazin-1-yl]-1-[(3-fluorophenyl)sulfonyl]-2-methyl-1H-benzimidazole] the Ki was 12.9 nM.
In the case of `Cc1c(Cl)cccc1S(=O)(=O)n1c(C)nc2c(N3C[C@@H](C)N[C@@H](C)C3)cccc21` [Example 100, 1-[(3-chloro-2-methylphenyl)sulfonyl]-4-[(3R,5S)-3,5-dimethylpiperazin-1-yl]-2-methyl-1H-benzimidazole], the Ki is reported as 2.28 nM.
Compound `O=S(=O)(c1cccc2ccccc12)n1cnc2c(N3CCNCC3)cc(F)cc21` [Example 101, 6-fluoro-1-(naphthalen-1-ylsulfonyl)-4-piperazin-1-yl-1H-benzimidazole] has a Ki of 1.33 nM.
`O=S(=O)(c1ccccc1Cl)n1cnc2c(N3CCNCC3)cc(F)cc21` [Example 102, 1-[(2-chlorophenyl)sulfonyl]-6-fluoro-4-piperazin-1-yl-1H-benzimidazole] showed a Ki of 0.698 nM.
`O=S(=O)(c1ccccc1)n1cnc2c(N3CCNCC3)cc(F)cc21` [Example 103, 6-fluoro-1-(phenylsulfonyl)-4-piperazin-1-yl-1H-benzimidazole] showed a Ki of 0.738 nM.
`O=S(=O)(c1ccccc1)n1cnc2c(N3C[C@@H]4C[C@H]3CN4)cccc21` [Example 104, 4-[(1S,4S)-2,5-diazabicyclo[2.2.1]hept-2-yl]-1-(phenylsulfonyl)-1H-benzimidazole] gave a Ki of 44.7 nM.
`O=S(=O)(c1cccc2ccccc12)n1cnc2c(N3C[C@@H]4C[C@H]3CN4)cccc21` [Example 105, 4-[(1S,4S)-2,5-diazabicyclo[2.2.1]hept-2-yl]-1-(naphthalen-1-ylsulfonyl)-1H-benzimidazole] was tested, and the Ki was 7.55 nM.
`O=S(=O)(c1ccccc1Cl)n1cnc2c(N3C[C@@H]4C[C@H]3CN4)cccc21` [Example 106, 1-[(2-chlorophenyl)sulfonyl]-4-[(1S,4S)-2,5-diazabicyclo[2.2.1]hept-2-yl]-1H-benzimidazole] showed a Ki of 5.3 nM.
Work on `O=S(=O)(c1cccc(F)c1)n1cnc2c(N3C[C@@H]4C[C@H]3CN4)cccc21` [Example 107, 4-[(1S,4S)-2,5-diazabicyclo[2.2.1]hept-2-yl]-1-[(3-fluorophenyl)sulfonyl]-1H-benzimidazole] yielded a Ki of 22.1 nM.
With `Cc1c(Cl)cccc1S(=O)(=O)n1cnc2c(N3C[C@@H]4C[C@H]3CN4)cccc21` [Example 108, 1-[(3-chloro-2-methylphenyl)sulfonyl]-4-[(1S,4S)-2,5-diazabicyclo[2.2.1]hept-2-yl]-1H-benzimidazole] the Ki was 2.86 nM.
In the case of `Cc1nc2c(N3C[C@@H]4C[C@H]3CN4)cccc2n1S(=O)(=O)c1ccccc1` [Example 109, 4-[(1S,4S)-2,5-diazabicyclo[2.2.1]hept-2-yl]-2-methyl-1-(phenylsulfonyl)-1H-benzimidazole], the Ki is reported as 30.5 nM.
Compound `Cc1nc2c(N3C[C@@H]4C[C@H]3CN4)cccc2n1S(=O)(=O)c1cccc2ccccc12` [Example 110, 4-[(1S,4S)-2,5-diazabicyclo[2.2.1]hept-2-yl]-2-methyl-1-(naphthalen-1-ylsulfonyl)-1H-benzimidazole] has a Ki of 9.92 nM.
In the case of `Cc1nc2c(N3C[C@@H]4C[C@H]3CN4)cccc2n1S(=O)(=O)c1ccccc1Cl` [Example 111, 1-[(2-chlorophenyl)sulfonyl]-4-[(1S,4S)-2,5-diazabicyclo[2.2.1]hept-2-yl]-2-methyl-1H-benzimidazole], the Ki is reported as 21 nM.
Work on `Cc1nc2c(N3C[C@@H]4C[C@H]3CN4)cccc2n1S(=O)(=O)c1cccc(F)c1` [Example 112, 4-[(1S,4S)-2,5-diazabicyclo[2.2.1]hept-2-yl]-1-[(3-fluorophenyl)sulfonyl]-2-methyl-1H-benzimidazole] yielded a Ki of 39.9 nM.
Work on `Cc1c(Cl)cccc1S(=O)(=O)n1c(C)nc2c(N3C[C@@H]4C[C@H]3CN4)cccc21` [Example 113, 1-[(3-chloro-2-methylphenyl)sulfonyl]-4-[(1S,4S)-2,5-diazabicyclo[2.2.1]hept-2-yl]-2-methyl-1H-benzimidazole] yielded a Ki of 14.1 nM.
`CCC1CN(c2cccc3c2ncn3S(=O)(=O)c2cccc3ccccc23)CCN1` (stereo not shown) [Example 118, 4-(3-ethylpiperazin-1-yl)-1-(1-naphthylsulfonyl)-1H-benzimidazole] gave a Ki of 1.38 nM.
For `CCC1CN(c2cccc3c2ncn3S(=O)(=O)c2ccccc2)CCN1` (stereo not shown) [Example 119, 4-(3-ethylpiperazin-1-yl)-1-(phenylsulfonyl)-1H-benzimidazole], the Ki was 0.484 nM.
Compound `CC(C)C1CN(c2cccc3c2ncn3S(=O)(=O)c2ccccc2)CCN1` (stereo not shown) [Example 120, 4-(3-isopropylpiperazin-1-yl)-1-(phenylsulfonyl)-1H-benzimidazole] has a Ki of 6.11 nM.
Compound `CC(C)C1CN(c2cccc3c2ncn3S(=O)(=O)c2cccc3ccccc23)CCN1` (stereo not shown) [Example 121, 4-(3-isopropylpiperazin-1-yl)-1-(1-naphthylsulfonyl)-1H-benzimidazole] has a Ki of 0.952 nM.
Work on `CC(C)C1CN(c2cccc3c2ncn3S(=O)(=O)c2ccccc2Cl)CCN1` (stereo not shown) [Example 122, 1-[(2-chlorophenyl)sulfonyl]-4-(3-isopropylpiperazin-1-yl)-1H-benzimidazole] yielded a Ki of 1.08 nM.
Compound `CC(C)CC1CN(c2cccc3c2ncn3S(=O)(=O)c2ccccc2)CCN1` (stereo not shown) [Example 123, 4-(3-isobutylpiperazin-1-yl)-1-(phenylsulfonyl)-1H-benzimidazole] has a Ki of 34.3 nM.
With `CC(C)CC1CN(c2cccc3c2ncn3S(=O)(=O)c2cccc3ccccc23)CCN1` (stereo not shown) [Example 124, 4-(3-isobutylpiperazin-1-yl)-1-(1-naphthylsulfonyl)-1H-benzimidazole] the Ki was 8.32 nM.
`CC(C)CC1CN(c2cccc3c2ncn3S(=O)(=O)c2ccccc2Cl)CCN1` (stereo not shown) [Example 125, 1-[(2-chlorophenyl)sulfonyl]-4-(3-isobutylpiperazin-1-yl)-1H-benzimidazole] was tested, and the Ki was 4.98 nM.
`Cc1nc2c(N3CCN[C@@H](C)C3)cccc2n1S(=O)(=O)c1cccc2c(Cl)cccc12` [Example 126, 1-[(5-chloro-1-naphthyl)sulfonyl]-2-methyl-4-[(3S)-3-methylpiperazin-1-yl]-1H-benzimidazole] was tested, and the Ki was 1.05 nM.
`Cc1nc2c(N3CCN[C@H](C)C3)cccc2n1S(=O)(=O)c1cccc2c(Cl)cccc12` [Example 127, 1-[(5-chloro-1-naphthyl)sulfonyl]-2-methyl-4-[(3R)-3-methylpiperazin-1-yl]-1H-benzimidazole] gave a Ki of 8.38 nM.
For `CC1CN(c2cccc3c2ncn3S(=O)(=O)c2ccccc2)CCN1` (stereo not shown) [Example 128, 4-(3-methylpiperazin-1-yl)-1-(phenylsulfonyl)-1H-benzimidazole], the Ki was 0.931 nM.
Compound `CC1CN(c2cccc3c2ncn3S(=O)(=O)c2cccc3ccccc23)CCN1` (stereo not shown) [Example 129, 4-(3-methylpiperazin-1-yl)-1-(1-naphthylsulfonyl)-1H-benzimidazole] has a Ki of 0.051 nM.
